Experimental data: patent US7816408B2, “Calcium receptor active compounds” (NPS Pharmaceuticals, Inc., priority 2002, dated 2010)
pEC50: −log10 of the molar value.

What follows are molecules tested on normal male SD rats (assay: Plasma Ca^2+ level of rats after single oral administration). Conditions: rat, mean of six animals, 1 hr after single oral dose 30 μmol/kg; vehicle 10% cyclodextrin (** 1% sodium-CMC).
Type: in vivo
Protocol: The compound of the present invention was administered to rats so as to examine the effects of the compound on the plasma calcium ion level and serum PTH level. The test was performed by orally administering single dose of the compound of the invention or a control compound to normal male SD rats with six animals in each group.
To the group 1 was administered as a control a 10% cyclodextrin aqueous solution in a dose of 2.5 ml/kg. To the group 2 was administered as a reference (R)-N-(3-(2-chlorophenyl)propyl)-1-(3-methoxyphenyl)ethylamine (KRN568) dissolved in a 10% cyclodextrin aqueous solution in a dose of 30 μmol/kg. To the group 3 was administered the compound of the present invention dissolved in a 10% cyclodextrin aqueous solution in a dose of 30 μmol/kg, provided that 1% sodium-CMC aqueous solution was used in place of 10% cyclodextrin aqueous solution for the compounds marked with ** in Table 2.
Blood of each rat was collected from the tail tip before the administration and 30 minutes and 1, 2, 4, 8 and 24 hours thereafter (or at the time indicated in Table 2), and the plasma Ca^2+ level and serum PTH level were measured. The data of the serum PTH level were statistically processed by the multiple comparison analysis in accordance with Steel's calibration by using the group 1 as the control.

SMILES | Plasma Ca^2+ (mmol/l) 1 hr [mmol/L]
COc1cccc([C@@H](C)NCCCc2ccccc2Cl)c1 [KRN568, (R)-N-(3-(2-chlorophenyl)propyl)-1-(3-methoxyphenyl)ethylamine, reference compound] | 1.305

Same assay, conditions: rat, mean of six animals, 2 hr after single oral dose 30 μmol/kg; vehicle 10% cyclodextrin (** 1% sodium-CMC)

SMILES | Plasma Ca^2+ (mmol/l) 2 hr [mmol/L]
COc1cccc([C@@H](C)NCCCc2ccccc2Cl)c1 [KRN568, (R)-N-(3-(2-chlorophenyl)propyl)-1-(3-methoxyphenyl)ethylamine, reference compound] | 1.237

Same assay, conditions: rat, mean of six animals, 4 hr after single oral dose 30 μmol/kg; vehicle 10% cyclodextrin (** 1% sodium-CMC)

SMILES | Plasma Ca^2+ (mmol/l) 4 hr [mmol/L]
COc1cccc([C@@H](C)NCCCc2ccccc2Cl)c1 [KRN568, (R)-N-(3-(2-chlorophenyl)propyl)-1-(3-methoxyphenyl)ethylamine, reference compound] | 1.290

Same assay, conditions: rat, mean of six animals, 8 hr after single oral dose 30 μmol/kg; vehicle 10% cyclodextrin (** 1% sodium-CMC)

SMILES | Plasma Ca^2+ (mmol/l) 8 hr [mmol/L]
COc1cccc([C@@H](C)NCCCc2ccccc2Cl)c1 [KRN568, (R)-N-(3-(2-chlorophenyl)propyl)-1-(3-methoxyphenyl)ethylamine, reference compound] | 1.340

These molecules were tested against T1, human calcium receptor (Homo sapiens, UniProt P41180) (assay: Activity on calcium receptors: fluo-3 fluorescence in HEK293 cells transfected with human calcium receptor gene). Conditions: HEK293 cells transfected with plasmid pHuPCaR4.0 (human calcium receptor gene), loaded with fluo-3; 1 mM CaCl2, 1 mM MgCl2.
T1 construct: expressed in transfected cells; host or cells: HEK293
T1 sequence (P41180 20-1078): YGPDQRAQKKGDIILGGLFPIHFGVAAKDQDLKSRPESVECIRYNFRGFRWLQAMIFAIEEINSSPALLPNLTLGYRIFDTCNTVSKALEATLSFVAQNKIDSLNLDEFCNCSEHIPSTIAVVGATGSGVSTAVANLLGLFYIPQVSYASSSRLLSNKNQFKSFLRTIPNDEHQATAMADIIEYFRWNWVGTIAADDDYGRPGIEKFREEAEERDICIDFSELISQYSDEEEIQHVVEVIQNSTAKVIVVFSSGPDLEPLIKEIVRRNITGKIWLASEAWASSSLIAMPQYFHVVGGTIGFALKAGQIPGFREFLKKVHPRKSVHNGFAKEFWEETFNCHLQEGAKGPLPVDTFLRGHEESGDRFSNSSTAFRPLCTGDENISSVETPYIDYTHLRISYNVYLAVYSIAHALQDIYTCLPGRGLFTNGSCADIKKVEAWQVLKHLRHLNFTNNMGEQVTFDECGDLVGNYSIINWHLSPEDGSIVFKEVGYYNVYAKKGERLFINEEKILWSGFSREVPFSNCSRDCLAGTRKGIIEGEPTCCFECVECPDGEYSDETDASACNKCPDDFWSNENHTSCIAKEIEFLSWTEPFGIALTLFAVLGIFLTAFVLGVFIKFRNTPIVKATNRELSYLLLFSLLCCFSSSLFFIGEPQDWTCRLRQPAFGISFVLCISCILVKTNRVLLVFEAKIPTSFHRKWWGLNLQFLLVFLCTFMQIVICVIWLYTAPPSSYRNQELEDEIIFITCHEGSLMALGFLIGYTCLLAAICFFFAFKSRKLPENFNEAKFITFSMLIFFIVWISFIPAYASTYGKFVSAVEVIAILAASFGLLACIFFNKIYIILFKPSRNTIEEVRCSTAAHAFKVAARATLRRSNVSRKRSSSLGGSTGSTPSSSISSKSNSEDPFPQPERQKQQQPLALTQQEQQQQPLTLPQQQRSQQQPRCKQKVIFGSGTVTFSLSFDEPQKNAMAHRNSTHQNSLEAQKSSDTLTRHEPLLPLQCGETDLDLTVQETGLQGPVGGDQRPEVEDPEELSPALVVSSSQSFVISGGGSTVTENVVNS
Type: cell-based
Protocol: The activities of the compounds of the present invention on calcium receptors were measured. The measurement was performed in accordance with the method described in Example 4 of Nemeth et al., PCT/US95/13704 (International Publication No. WO96/12697). In brief, HEK293 cells were transfected with a plasmid pHuPCaR4.0 containing a human calcium receptor gene and loaded with fluo-3. The loading was carried out by incubating the cells at 37° C. for 1 hour in Dulbecco's modified Eagle's medium which contained about 5 μM of fluo-3/AM and had been buffered with 20 mM HEPES. Next, the cells were rinsed with Hank's balanced salt solution which contained 1 mM CaCl2 and 1 mM MgCl2 and had been buffered with 20 mM HEPES. Then each test compound was added to the cells and the fluorescence was measured with the use of an excitation wavelength of 485 nm and an emission wavelength of 540 nm.

pEC50 | SMILES
4.89 | COc1cccc(C(C)NCCCCOc2ccccc2Cl)c1 (centres unmarked) [Compound 2]
5.12 | COc1cccc(C(C)NCCCCCCOc2ccccc2Cl)c1 (centres unmarked) [Compound 6]
6.26 | COc1cccc(C(C)NCCCCCOc2ccc(Cl)cc2)c1 (centres unmarked) [Compound 16]
5.49 | COc1cccc(C(C)NCCCSc2ccccc2Cl)c1 (centres unmarked) [Compound 20]
5.74 | COc1cccc(C(C)NCCCCCCSc2ccccc2Cl)c1 (centres unmarked) [Compound 26]
5.80 | COc1cccc(C(C)NCCCSc2ccc(Cl)cc2)c1 (centres unmarked) [Compound 28]
5.29 | COc1cccc([C@@H](C)NCCCCCCSc2nc3ccccc3s2)c1 [Compound 40]
6.55 | COc1cccc(C(C)NCCCOC2c3ccccc3-c3ccccc32)c1 (centres unmarked) [Compound 56]
5.99 | COc1cccc(C(C)NCCCOc2ccc3c(c2)Cc2ccccc2-3)c1 (centres unmarked) [Compound 59]
6.19 | COc1cccc(C(C)NCCCOc2ccc(Cl)cc2)c1 (centres unmarked) [Compound 68]
5.14 | COc1cccc(C(C)NCCCOc2ccc3ccccc3c2)c1 (centres unmarked) [Compound 74]
6.00 | COc1cccc(C(C)NCCCSc2ccc3ccccc3c2)c1 (centres unmarked) [Compound 77]
5.49 | COc1cccc(C(C)NCCCNC(C)c2cccc(OC)c2)c1 (centres unmarked) [Compound 88]
6.07 | COc1cccc(C(C)NCCSc2cccc(C(F)(F)F)c2)c1 (centres unmarked) [Compound K-2008]
6.31 | COc1cccc(C(C)NCCSc2ccccc2Br)c1 (centres unmarked) [Compound K-2015]
7.10 | COc1cccc(C(C)NCCCCSc2ccc(F)cc2)c1 (centres unmarked) [Compound K-2040]
7.00 | COc1cccc(C(C)NCCCCCSc2ccc(F)cc2)c1 (centres unmarked) [Compound K-2041]
6.85 | COc1cccc(C(C)NCCCSc2cccc(Br)c2)c1 (centres unmarked) [Compound K-2046]
7.41 | COc1cccc(C(C)NCCCCSc2ccc(C(F)(F)F)cc2)c1 (centres unmarked) [Compound K-2056]

Continued, molecule first:

SMILES | pEC50
CC(NCCSc1cc(Cl)ccc1Cl)c1cccc(OCCCCCCCl)c1 (racemic) [Compound K-2260, (±)-N-(1-(3-(6-chlorohexyloxy)phenyl)ethyl)-2-(2′,5′-dichlorophenylthio)ethylamine] | 7.02
Cc1ccc(COc2cccc(C(C)NCCSc3cc(Cl)ccc3Cl)c2)cc1 (racemic) [Compound K-2268, (±)-N-(1-(3-(4-methylbenzyloxy)phenyl)ethyl)-2-(2′,5′-dichlorophenylthio)ethylamine] | 7.05
COc1cccc(C(C)NCCCCOc2cccc(Cl)c2)c1 (centres unmarked) [Compound 8] | 5.72
COc1cccc(C(C)NCCCCCOc2cccc(Cl)c2)c1 (centres unmarked) [Compound 10] | 6.00
COc1cccc(C(C)NCCCCCCOc2cccc(Cl)c2)c1 (centres unmarked) [Compound 12] | 5.92
COc1cccc([C@@H](C)NCCCCOc2ccc(Cl)cc2)c1 [Compound 14] | 5.54
COc1cccc(C(C)NCCCCCCOc2ccc(Cl)cc2)c1 (centres unmarked) [Compound 18] | 6.12
COc1cccc(C(C)NCCCCCSc2ccccc2Cl)c1 (centres unmarked) [Compound 24] | 6.36
COc1cccc(C(C)NCCCCSc2nc3ccccc3s2)c1 (centres unmarked) [Compound 36] | 6.68
COc1cccc(C(C)NCCCCCSc2nc3ccccc3s2)c1 (centres unmarked) [Compound 38] | 6.01
COc1cccc(C(C)NCCCOc2ccccc2Cl)c1 (centres unmarked) [Compound 62] | 6.29
COc1cccc(C(C)NCCCOc2cccc(Cl)c2)c1 (centres unmarked) [Compound 65] | 6.28
COc1cccc(C(C)NCCCOc2ccc3[nH]ccc3c2)c1 (centres unmarked) [Compound 80] | 6.33
COc1cccc([C@@H](C)NCCCOc2ccc(-c3ccccc3)cc2)c1 [Compound 83] | 6.00
CC(NCCCNC(C)c1cccc2ccccc12)c1cccc2ccccc12 (centres unmarked) [Compound 93] | 6.96
CC(NCCCOc1ccc2oc(-c3ccccc3)cc(=O)c2c1)c1cccc2ccccc12 (centres unmarked) [Compound 103] | 6.52
CC(NCCCOc1ccc2[nH]ccc2c1)c1cccc2ccccc12 (centres unmarked) [Compound 112] | 7.11
COc1cccc(C(C)NCCCOc2ccc(Br)cc2)c1 (centres unmarked) [Compound K-2003] | 6.54
COc1cccc(C(C)NCCCCOc2ccc(Br)cc2)c1 (centres unmarked) [Compound K-2004] | 6.38
COc1cccc(C(C)NCCCCCOc2ccc(Br)cc2)c1 (centres unmarked) [Compound K-2005] | 6.37

SMILES | pEC50
COc1cccc(C(C)NCCCCCCOc2ccc(Br)cc2)c1 (centres unmarked) [Compound K-2006] | 6.11
COc1cccc([C@@H](C)NCCCCCCCOc2ccc(Br)cc2)c1 [Compound K-2007] | 6.33
COc1cccc(C(C)NCCCCSc2cccc(C(F)(F)F)c2)c1 (centres unmarked) [Compound K-2010] | 6.85
COc1cccc([C@@H](C)NCCCCCSc2cccc(C(F)(F)F)c2)c1 [Compound K-2011] | 6.68
COc1cccc(C(C)NCCCCCCSc2cccc(C(F)(F)F)c2)c1 (centres unmarked) [Compound K-2012] | 6.06
COc1cccc(C(C)NCCCSc2ccccc2Br)c1 (centres unmarked) [Compound K-2016] | 6.44
COc1cccc(C(C)NCCCCSc2ccccc2Br)c1 (centres unmarked) [Compound K-2017] | 6.44
COc1cccc(C(C)NCCCCCSc2ccccc2Br)c1 (centres unmarked) [Compound K-2018] | 6.48
CC(NCCOc1cccc(Cl)c1)c1cccc2ccccc12 (centres unmarked) [Compound K-2030] | 7.31
COc1cccc(C(C)NCCCCSc2ccc([N+](=O)[O-])cc2)c1 (centres unmarked) [Compound K-2033] | 6.46
COc1cccc(C(C)NCCCCCSc2ccc([N+](=O)[O-])cc2)c1 (centres unmarked) [Compound K-2034] | 7.21
COc1cccc(C(C)NCCCCCCSc2ccc([N+](=O)[O-])cc2)c1 (centres unmarked) [Compound K-2035] | 6.66
COc1cccc(C(C)NCCSc2cccc(Br)c2)c1 (centres unmarked) [Compound K-2045] | 6.06
COc1cccc(C(C)NCCCCSc2cccc(Br)c2)c1 (centres unmarked) [Compound K-2047] | 6.89
COc1cccc(C(C)NCCCCCSc2cccc(Br)c2)c1 (centres unmarked) [Compound K-2048] | 6.14
COc1cccc(C(C)NCCCCCCSc2cccc(Br)c2)c1 (centres unmarked) [Compound K-2049] | 6.08
COc1cccc(C(C)NCCCCCCCSc2cccc(Br)c2)c1 (centres unmarked) [Compound K-2050] | 6.26
COc1cccc(C(C)NCCCCCCCCSc2cccc(Br)c2)c1 (centres unmarked) [Compound K-2051] | 6.47
COc1cccc(C(C)NCCCSc2ccc(C(F)(F)F)cc2)c1 (centres unmarked) [Compound K-2055] | 7.24
